Assay results as given in patent US8338624B2, “Isoflavone derivatives and uses thereof” (Yeda Research and Development Co., Ltd., priority 2007, dated 2012).

Columns and labels:
[1] = system: 320DM human colon cancer cells; assay: DNA synthesis by [3H]-thymidine incorporation, 320DM cells; format: cell-based
Procedure: (§1) Cells were cultured in MEM supplemented with 10% FCS and antibiotics. Cells were grown to subconfluence and then treated with various hormones or agents as described by Somjen et al. (Somjen et al., 1998). The cells were characterized in terms of expression of mRNAs for estrogen […] by real time PCR, and the results are summarized in Table 1. N87, 320DM and H295R cells expressed mRNAs for both ERs. The ratio of ERα to ERβ was 1:8.5, 1:30 and 1:1.8 in N87, 320DM and H295R cells, respectively. Ovarian A2780 and prostate C4-24 cells expressed mainly mRNA for ERβ, and the ratio of ERβ to ERα was 300:1 and 70:1, respectively. MLS ovarian cells expressed mRNA only for ERβ. The ratio of ERα to ERβ in T47D cells has been reported to be 9:1.
[^3H]-Thymidine incorporation into DNA was used for the assessment of the various effects (proliferative or inhibitory) of various isoflavones, isoflavone derivatives and known cytotoxic drugs in the above-mentioned cells. Cells were grown until subconfluence using conditions described in Somjen et al. […] At the end of incubation, [^3H]-thymidine was added for two hours. Cells were then treated with 10% ice-cold trichloroacetic (TCA) for 5 min and washed twice with 5% TCA and then with cold ethanol. The cellular layer was dissolved in 0.3 ml of 0.3 M NaOH, aliquots were taken for counting radioactivity, and [^3H]-thymidine incorporation into DNA was calculated.

[2] = system: A2780 ovarian cancer cells; assay: DNA synthesis by [3H]-thymidine incorporation, A2780 cells; format: cell-based, human
Procedure: as §1
(§2) [^3H]-Thymidine incorporation into DNA was used for the assessment of the various effects (proliferative or inhibitory) of various isoflavones, isoflavone derivatives and known cytotoxic drugs in the above-mentioned cells. Cells were grown until subconfluence using conditions described in Somjen et al. (Somjen et al., 1998) and then treated with various agents for 24 or 48 h as indicated. At the end of incubation, [^3H]-thymidine was added for two hours. Cells were then treated with 10% ice-cold trichloroacetic (TCA) for 5 min and washed twice with 5% TCA and then with cold ethanol. The cellular layer was dissolved in 0.3 ml of 0.3 M NaOH, aliquots were taken for counting radioactivity, and [^3H]-thymidine incorporation into DNA was calculated.

[3] = system: H295R adrenocarcinoma cells; assay: DNA synthesis by [3H]-thymidine incorporation, H295R cells; format: cell-based, human
Procedure: as §1, §2

[4] = system: human prostate C4-2B cancer cells; assay: DNA synthesis by [3H]-thymidine incorporation, C4-2B cells; format: cell-based
Procedure: as §1, §2

[5] = system: Human umbilical vascular smooth muscle cells (VSMC); assay: DNA synthesis by [3H]-thymidine incorporation, normal VSMC; format: cell-based; settings: compound at 3 μM
Procedure: Human umbilical vascular smooth muscle cells (VSMC) sensitive to estrogen, were grown in culture as described above, and used only at passages 1-3, when expression of smooth muscle actin was clearly demonstrable (Somjen et al. 2000). The ratio of the expression of mRNA for ERα to ERβ was 2.7:1.
as §2

[6] = system: T47D mammary cancer cells; assay: DNA synthesis by [3H]-thymidine incorporation, T47D cells; format: cell-based, human; settings: Homo sapiens
Procedure: as §1, §2

320DM colon xenografts = 320DM colon xenografts in nude mice; format: in vivo; settings: 320DM xenografts, 8 ip daily 230 μg, 9 injections within 11 days
Text: Female CD1 nude mice (8-week old, ˜30 g) were housed and handled with free access to food and water in the animal facility according to the guidelines (1996) of the Institutional Animal Care and Use Committee of the Weizmann Institute of Science, Rehovot, Israel.
Thirty female CD-1 nude mice were inoculated sc with 2×10^6 320DM human colon cancer cells. Two weeks later, 13 mice that developed palpable tumors were divided into two groups: control (5 mice) and treatment (8 mice). Each mouse of the treatment group received daily intra-peritoneal (ip) injections of compound 8 (230 μg in 70 μl of propylene glycol:PBS (20:80)) and the control mice received only propylene glycol:PBS. Each treated mouse received 9 injections within 11 days. The tumors were measured with calipers every other day during 12 days in two dimensions, length (a) and width (b), and tumor area was calculated using the formula: r^2×3.14, where r=a/2+b/2/2. The tumor area on Day 0 was taken as 100%.

## CC(C)(C)OC(=O)NCCCCCCNC(=O)CCCc1oc2cc(O)cc(O)c2c(=O)c1-c1ccc(O)cc1 [Compound 8, 2-[3-[N-[6-(tert-Butoxycarbonyl)-aminohexyl]]-caboxamidopropyl]-5,7,4′-trihydroxyisoflavone]
[1]; 30 to 3000 nM
  effect on DNA synthesis / growth: significant growth inhibitory effect
[1]; compound at 3 μM
  DNA synthesis, ratio experimental/control (E/C): 0.2 ± 0.09
[2]; at 3 μM
  effect on DNA synthesis: had no effect
[2]; compound at 3 μM
  DNA synthesis, ratio experimental/control (E/C): 1.12 ± 0.19
[3]; Homo sapiens, NCI-H295R, at 3 μM, read-out: inhibition of DNA synthesis / growth
  inhibition at 3 µM: 40 to 45%
[3]; compound at 3 μM
  DNA synthesis, ratio experimental/control (E/C): 0.6 ± 0.14
[4]; at 30 nM and 300 nM
  inhibition of DNA synthesis: 10-15%
[4]; compound at 0.3 μM
  DNA synthesis, ratio experimental/control (E/C): 0.75 ± 0.07
[5]
  DNA synthesis, ratio experimental/control (E/C): 0.78 ± 0.1
[6]
  inhibition at 10 µM: 24 to 40%
320DM colon xenografts
  effect on growth of tumors: slowed down the growth of the tumors
